Laboratory results reported in patent US20110224231A1, “Novel Lactams as Beta Secretase Inhibitors” (Pfizer Inc., priority 2008, published 2011).

The molecules below were run against T1, soluble human BACE (Homo sapiens, UniProt P56817) (assay: BACE activity Cell Free Assay (ELISA of cleaved synthetic APP substrate)).
T1 construct: cells secreting human recombinant soluble BACE; made in house; conditioned medium
T1 sequence (P56817 46-457 limits assumed): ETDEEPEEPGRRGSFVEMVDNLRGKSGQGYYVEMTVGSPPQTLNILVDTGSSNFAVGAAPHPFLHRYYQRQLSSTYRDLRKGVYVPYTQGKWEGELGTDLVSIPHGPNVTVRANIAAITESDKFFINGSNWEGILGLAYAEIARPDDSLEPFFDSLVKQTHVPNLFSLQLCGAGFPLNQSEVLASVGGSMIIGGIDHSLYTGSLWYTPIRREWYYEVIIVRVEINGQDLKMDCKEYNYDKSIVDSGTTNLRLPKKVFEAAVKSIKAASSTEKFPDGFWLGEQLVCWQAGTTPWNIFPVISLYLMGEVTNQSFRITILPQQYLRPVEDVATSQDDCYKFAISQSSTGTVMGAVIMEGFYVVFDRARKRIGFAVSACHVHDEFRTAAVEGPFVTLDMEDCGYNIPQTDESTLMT
Format: biochemical
Description: A synthetic APP substrate that can be cleaved by beta˜secretase and having N-terminal biotin is used to assay beta-secretase activity in the presence or absence of the inhibitory compounds. […] The substrate and test compounds are added to 384 well polypropylene plates. The reaction is initiated by the addition of soluble BACE enzyme to a final volume of 12.5 μL per well. The final assay conditions are: 0.001˜300 μM compound inhibitor, 0.05M sodium acetate (pH 4.5), 3 μM substrate, soluble human BACE, and 2% DMSO. Concentrated conditioned media from cells secreting human recombinant soluble BACE was titrated to provide a source of BACE enzyme. The cell media can be used as either a crude BACE prep or BACE can be purified using any number of techniques, including immobilized BACE inhibitor purification columns. The assay mixture is incubated for 1 hour at 37° C., and the reaction is quenched by the addition of an equal volume of 0.1M Tris, pH 8. Half of the quenched mix is incubated on clear streptavidin coated 384 well polystyrene plates for 1 hour. An ELISA is then performed using an in˜house antibody that specifically recognizes the new C˜terminus created after cleavage by BACE. […] (These polyclonal antibodies were raised in rabbits by immunizing with antigen comprised of six amino acid residues present at the carboxy terminus of the wild-type soluble APPbeta sequence (NH2-ISEVKM-COOH) or seven amino acid residues present at the carboxy terminus of the Swedish mutation at the beta cleavage site (NH2-EISEVNL˜COOH) conjugated to keyhole limpet hemacyanin by methods known to those skilled in the art.) A secondary anti˜species Horseradish Peroxidase (HRP) conjugated antibody is then utilized. The readout, following assay development with TMB substrate and quenching with 0.09M sulfuric acid, is absorbance at 450 nm.
For CC1CC2(C=CC(=O)N2c2cccc(F)c2)CCN1Cc1cccc(-c2ccc(C(F)(F)F)cn2)c1 (racemic) [Example 30, Racemic (5R,7S),(5S,7R)-1-(3-fluorophenyl)-7-methyl-8-{3-[5-(trifluoromethyl)pyridin-2-yl]benzyl}-1,8-diazaspiro[4.5]dec-3-en-2-one], the IC50 was 100 to 300 µM.
In the case of CCNc1ccc(CN2CCC3(C=CC(=O)N3c3cccc(F)c3)CC2C)cn1 (racemic) [Example 31, Racemic (5R,7S),(5S,7R)-8-{[6-(ethylamino)pyridin-3-yl]methyl}-1-(3-fluorophenyl)-7-methyl-1,8-diazaspiro[4.5]dec-3-en-2-one], the IC50 is reported as 100 to 300 µM.
With CCCNc1ccc(CN2CCC3(C=CC(=O)N3c3cccc(F)c3)CC2C)cn1 (racemic) [Example 32, Racemic (5R,7S),(5S,7R)-1-(3-fluorophenyl)-7-methyl-8-{[6-(propylamino)pyridin-3-yl]methyl}-1,8-diazaspiro[4.5]dec-3-en-2-one] the IC50 was 100 to 300 µM.
CCOc1cccc(CN2CCC3(CCC(=O)N3c3cccc(F)c3)CC2C)c1 (racemic) [Example 33, Racemic (5R,7S),(5S,7R)-8-(3-ethoxybenzyl)-1-(3-fluorophenyl)-7-methyl-1,8-diazaspiro[4.5]decan-2-one] was tested, and the IC50 was 100 to 300 µM.
With Cc1ccc(Oc2cccc(CN3CCC4(CCC(=O)N4c4cccc(F)c4)CC3C)c2)cc1 (racemic) [Example 34, Racemic (5R,7S),(5S,7R)-1-(3-fluorophenyl)-7-methyl-8-[3-(4-methylphenoxy)benzyl]-1,8-diazaspiro[4.5]decan-2-one] the IC50 was 10 to 100 µM.
Molecule COc1ccc(Oc2cccc(CN3CCC4(CCC(=O)N4c4cccc(F)c4)CC3C)c2)cc1 (racemic) [Example 35, Racemic (5R,7S),(5S,7R)-1-(3-fluorophenyl)-8-[3-(4-methoxyphenoxy)benzyl]-7-methyl-1,8-diazaspiro[4.5]decan-2-one] has an IC50 of 10 to 100 µM.
CC1CC2(CCC(=O)N2c2cccc(F)c2)CCN1Cc1cccc(S(=O)(=O)N2CCCC2)c1 (racemic) [Example 36, Racemic (5R,7S),(5S,7R)-1-(3-fluorophenyl)-7-methyl-8-[3-(pyrrolidin-1-ylsulfonyl)benzyl]-1,8-diazaspiro[4.5]decan-2-one] was tested, and the IC50 was 100 to 300 µM.
With CC1CC2(CCC(=O)N2c2cccc(F)c2)CCN1Cc1ccc(O)cc1 (racemic) [Example 37, Racemic (5R,7S),(5S,7R)-1-(3-fluorophenyl)-8-(4-hydroxybenzyl)-7-methyl-1,8-diazaspiro[4.5]decan-2-one] the IC50 was 10 to 100 µM.
Molecule Cc1cc(CN2CCC3(CCC(=O)N3c3cccc(F)c3)CC2C)ccc1O (racemic) [Example 38, Racemic (5R,7S),(5S,7R)-1-(3-fluorophenyl)-8-(4-hydroxy-3-methylbenzyl)-7-methyl-1,8-diazaspiro[4.5]decan-2-one] has an IC50 of 10 to 100 µM.
CCCn1nccc1CN1CCC2(CCC(=O)N2c2cccc(F)c2)CC1C (racemic) [Example 39, Racemic (5R,7S),(5S,7R)-1-(3-fluorophenyl)-7-methyl-8-[(1-propyl-1H-pyrazol-5-yl)methyl]-1,8-diazaspiro[4.5]decan-2-one] was tested, and the IC50 was 100 to 300 µM.
Work on CC1CC2(CCC(=O)N2c2cccc(F)c2)CCN1Cc1ccc2[nH]ccc2c1 (racemic) [Example 40, Racemic (5R,7S),(5S,7R)-1-(3-fluorophenyl)-8-(1H-indol-5-ylmethyl)-7-methyl-1,8-diazaspiro[4.5]decan-2-one] yielded an IC50 of 100 to 300 µM.
In the case of CC1CC2(CCC(=O)N2c2cccc(F)c2)CCN1Cc1ccc(O)c(C#N)c1 (racemic) [Example 41, Racemic (5R,7S),(5S,7R)-1(3-fluorophenyl)-7-methyl-2-oxo-1,8-diazaspiro[4.5]dec-8-yl]methyl}-2-hydroxybenzonitrile], the IC50 is reported as 10 to 100 µM.
Work on COc1cc(CN2CCC3(CCC(=O)N3c3cccc(F)c3)CC2C)ccc1O (racemic) [Example 42, Racemic (5R,7S),(5S,7R)-1-(3-fluorophenyl)-8-(4-hydroxy-3-methoxybenzyl)-7-methyl-1,8-diazaspiro[4.5]decan-2-one] yielded an IC50 of 10 to 100 µM.
Molecule COc1ccc(F)c(CN2CCC3(CCC(=O)N3c3cccc(F)c3)CC2C)c1 (racemic) [Example 43, Racemic (5R,7S),(5S,7R)-8-(2-fluoro-5-methoxybenzyl)-1-(3-fluorophenyl)-7-methyl-1,8-diazaspiro[4.5]decan-2-one] has an IC50 of 100 to 300 µM.
CC1CC2(CCC(=O)N2c2cccc(F)c2)CCN1Cc1ccc(O)c(Cl)c1 (racemic) [Example 44, Racemic (5R,7S),(5S,7R)-8-(3-chloro-4-hydroxybenzyl)-1-(3-fluorophenyl)-7-methyl-1,8-diazaspiro[4.5]decan-2-one] was tested, and the IC50 was 10 to 100 µM.
Work on CC(C)Oc1cccc(CN2CC[C@]3(CCC(=O)N3c3cccc(F)c3)C[C@@H]2C)c1 (racemic) [Example 45, Racemic (5R,7S),(5S,7R)-1-(3-fluorophenyl)-8-(3-isopropoxybenzyl)-7-methyl-1,8-diazaspiro[4.5]decan-2-one] yielded an IC50 of 10 to 100 µM.
With CCCOc1cccc(CN2CCC3(CCC(=O)N3c3cccc(F)c3)CC2C)c1 (racemic) [Example 46, Racemic (5R,7S),(5S,7R)-1-(3-fluorophenyl)-7-methyl-8-(3-propoxybenzyl)-1,8-diazaspiro[4.5]decan-2-one] the IC50 was 10 to 100 µM.
CCCCOc1cccc(CN2CCC3(CCC(=O)N3c3cccc(F)c3)CC2C)c1 (racemic) [Example 47, Racemic (5R,7S),(5S,7R)-8-(3-butoxybenzyl)-1-(3-fluorophenyl)-7-methyl-1,8-diazaspiro[4.5]decan-2-one] gave an IC50 of 100 to 300 µM.
Work on CC(C)COc1cccc(CN2CCC3(CCC(=O)N3c3cccc(F)c3)CC2C)c1 (racemic) [Example 48, Racemic (5R,7S),(5S,7R)-1-(3-fluorophenyl)-8-(3-isobutoxybenzyl)-7-methyl-1,8-diazaspiro[4.5]decan-2-one] yielded an IC50 of 100 to 300 µM.
CC1CC2(CCC(=O)N2c2cccc(F)c2)CCN1Cc1cccc(-c2cccnc2)c1 (racemic) [Example 49, Racemic (5R,7S),(5S,7R)-1-(3-fluorophenyl)-7-methyl-8-(3-pyridin-3-ylbenzyl)-1,8-diazaspiro[4.5]decan-2-one] gave an IC50 of 100 to 300 µM.
CC1CC2(CCC(=O)N2c2cccc(F)c2)CCN1Cc1cccc(OC2CCCC2)c1 (racemic) [Example 50, Racemic (5R,7S),(5S,7R)-8-[3-(cyclopentyloxy)benzyl]-1-(3-fluorophenyl)-7-methyl-1,8-diazaspiro[4.5]decan-2-one] was tested, and the IC50 was 100 to 300 µM.
For Cc1ccncc1-c1cccc(CN2CCC3(CCC(=O)N3c3cccc(F)c3)CC2C)c1 (racemic) [Example 51, Racemic (5R,7S),(5S,7R)-1-(3-fluorophenyl)-7-methyl-8-[3-(4-methylpyridin-3-yl)benzyl]-1,8-diazaspiro[4.5]decan-2-one], the IC50 was 10 to 100 µM.
In the case of CC1CC2(CCC(=O)N2c2cccc(F)c2)CCN1Cc1cccc(Oc2ccccc2)c1 (racemic) [Example 52, Racemic (5R,7S),(5S,7R)-1-(3-fluorophenyl)-7-methyl-8-(3-phenoxybenzyl)-1,8-diazaspiro[4.5]decan-2-one], the IC50 is reported as 10 to 100 µM.
Work on CC1CC2(CCC(=O)N2c2cccc(F)c2)CCN1Cc1cc(Br)ccc1F (racemic) [Example 53, Racemic (5R,7S),(5S,7R)-8-(5-bromo-2-fluorobenzyl)-1-(3-fluorophenyl)-7-methyl-1,8-diazaspiro[4.5]decan-2-one] yielded an IC50 of 100 to 300 µM.
With CC1CC2(CCC(=O)N2c2cccc(F)c2)CCN1Cc1nc(-c2ccc(C#N)cc2)cs1 (racemic) [Example 54, Racemic 4-(2-{[(5R,7S),(5S,7R)-1-(3-fluorophenyl)-7-methyl-2-oxo-1,8-diazaspiro[4.5]dec-8-yl]methyl}-1,3-thiazol-4-yl)benzonitrile] the IC50 was 100 to 300 µM.
CC1CC2(CCC(=O)N2c2cccc(F)c2)CCN1Cc1cccc(Oc2ccc(Cl)cc2)c1 (racemic) [Example 55, Racemic (5R,7S),(5S,7R)-8-[3-(4-chlorophenoxy)benzyl]-1-(3-fluorophenyl)-7-methyl-1,8-diazaspiro[4.5]decan-2-one] was tested, and the IC50 was 10 to 100 µM.
For CC(=O)Nc1ccc(CN2CCC3(C=CC(=O)N3c3cccc(F)c3)CC2C)cc1 (racemic) [Example 59, Racemic N-(4-{[(5R,7S),(5S,7R)-1-(3-fluorophenyl)-7-methyl-2-oxo-1,8-diazaspiro[4.5]-3-en 8-yl]methyl}phenyl)acetamide], the IC50 was 1 to 10 µM.
CC1CC2(C=CC(=O)N2c2cccc(F)c2)CCN1Cc1ccnn1CC(F)(F)F (racemic) [Example 60, Racemic (5R,7S),(5S,7R)-1-(3-fluorophenyl)-7-methyl-8-{[1-(2,2,2-trifluoroethyl)-1H-pyrazol-5-yl]methyl}-1,8-diazaspiro[4.5]dec-3-en-2-one] gave an IC50 of 10 to 100 µM.
CC1CC2(C=CC(=O)N2c2cccc(F)c2)CCN1Cc1c[nH]c2ccc(C#N)cc12 (racemic) [Example 61, Racemic 3-{[(5R,7S),(5S,7R)-1-(3-fluorophenyl)-7-methyl-2-oxo-1,8-diazaspiro[4.5]dec-3-en-8-yl]methyl}-1H-indole-5-carbonitrile] showed an IC50 of 10 to 100 µM.
